Here are results for 4 compounds from patent US10668081B2, “Prostamide-containing intraocular implant” (Allergan, Inc., priority 2013, dated 2020).

Test [1] deals with intraocular pressure in dogs. In words: IOP reduction after topical administration to normotensive dogs. It counts as in vivo, dog. The conditions noted are these: topical 25 μL, 6 hours after administration. An excerpt:
(§1) A series of prostamides were selected as potential candidates for an intracameral biodegradable drug delivery system (e.g., an implant) and tested for their ability to lower IOP by direct administration to the aqueous humor (therefore, by intracameral administration). Table 1 lists the EC50 values (nM) obtained from the feline (cat) iris assay, calculated log P values (clog P), and IOP reduction values obtained after either topical or intracameral administration for different prostamides. Intracameral drug administration was accomplished by placing an infusion pump in the subcutaneous pocket in the neck of dogs with a cannula running into the anterior chamber of the eye. Test runs were carried out to measure and compare the concentration of the compound in the solution exiting the pump with that initially added to the pump in order to confirm the dosing level.

Test [2] concerns intraocular pressure in dogs. Description: IOP reduction after intracameral administration by infusion pump in dogs. Format: in vivo, dog. The conditions noted are these: for Intracameral Administration (dogs) Max IOP reduction: infusion pump into anterior chamber, 2-3 weeks, vs baseline.
Text: as §1

In another test the target is Prostamide/FP receptor (Felis catus, UniProt A0ABI7XJ69). In words: Cat iris sphincter assay (contraction of isolated feline iris sphincter muscle). Format: cell-based.
Chain of Prostamide/FP receptor (A0ABI7XJ69 entry or part of it): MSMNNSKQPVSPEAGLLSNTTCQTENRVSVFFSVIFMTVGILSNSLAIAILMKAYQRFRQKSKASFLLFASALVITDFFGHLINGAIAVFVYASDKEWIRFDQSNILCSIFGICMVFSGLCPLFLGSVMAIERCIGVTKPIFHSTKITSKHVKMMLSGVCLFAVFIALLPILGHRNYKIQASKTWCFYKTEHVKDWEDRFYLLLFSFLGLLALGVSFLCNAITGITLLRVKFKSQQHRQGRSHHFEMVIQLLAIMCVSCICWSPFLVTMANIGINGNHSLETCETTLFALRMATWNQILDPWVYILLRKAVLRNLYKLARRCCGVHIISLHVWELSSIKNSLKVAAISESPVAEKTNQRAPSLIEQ

Consider `NC(=O)CCC/C=C\C[C@@H]1[C@@H](/C=C/[C@@H](O)CCc2cc(Cl)sc2Cl)[C@H](O)C[C@@H]1O` [Compound 1], for which, in test [1] (concentration 0.03% (w/v)), the “Topical Administration (dogs) IOP reduction” value was −5 mm Hg. Besides, in test [2] (dose 15 ng/day), the “Intracameral Administration (dogs) Max IOP reduction” value is given as about 35%. Besides, the “IOP reduction when administered intracamerally, compared with bimatoprost (in words)” value in test [2] (normotensive dog eye, directly to the anterior chamber) is “reduces IOP effectively and much more efficiently than bimatoprost”.
On Prostamide/FP receptor, `CCNC(=O)CCC/C=C\C[C@@H]1[C@@H](/C=C/[C@@H](O)CCc2cc(Br)c(C)s2)[C@H](O)C[C@@H]1O` [Compound 4] displayed an EC50 of 25 nM. The “Topical Administration (dogs) IOP reduction” value in test [1] (concentration 0.03% (w/v)) is −3 mm Hg. Also, the “Intracameral Administration (dogs) Max IOP reduction” value in test [2] (dose 15 ng/day) is listed as under 10%.
On to `CCNC(=O)CCC/C=C\C[C@@H]1[C@@H](/C=C/[C@@H](O)CCc2ccccc2)[C@H](O)C[C@@H]1O` [Compound 3, Bimatoprost], for which, in test [1] (concentration 0.01% (w/v)), the “Topical Administration (dogs) IOP reduction” value is reported as −3.6 mm Hg. Also, the “Intracameral Administration (dogs) Max IOP reduction” value in test [2] (dose 108 ng/day) is reported as about 45%.
Consider `CCCCC[C@@H](/C=C/[C@@H]1[C@@H](C/C=C\CCCC(N)=O)[C@@H](O)C[C@H]1O)OC` [Compound 5], for which the “Topical Administration (dogs) IOP reduction” value in test [1] (concentration 0.01% (w/v)) is recorded as −3 to −4 mm Hg. Moreover, the “Intracameral Administration (dogs) Max IOP reduction” value in test [2] (dose 100 ng/day) is on record as about 20%.
